Data on one molecule can be found in patent US3968251A, “Arylacetylene compounds as antithrombotic agents” (Eli Lilly and Company, priority 1975, dated 1976).

The experiment has as its system collagen-induced platelet aggregation. Description: collagen-induced platelet aggregation after oral dosing (method of Herrmann, et al., 139, 548 (1972)). Format: in vivo, Guinea pig. The note with it: for inhibition at 25 mg/kg: Cavia porcellus, Platelet, po, oral 25 mg/kg, guinea pig, read-out: Percent Inhibition of Collagen-Induced Platelet Aggregation. The protocol:
Exp. Biol. Med., 139, 548 (1972).
The effect of (2'-fluoro-4-biphenyl)acetylene on collagen-induced platelet aggregation was tested by the method of Hermann, et al., Proc. Soc. Exp. Biol. Med., 139, 548 (1972). Guinea pigs weighing 300-400 g, were used. The compound was administered by oral dosing. At time intervals after dosing, blood samples were obtained for assessing platelet function. The collagen used to induce platelet aggregation was prepared from a stock solution obtained by solubilizing Sigma bovine Achilles Tendon with acetic acid. […] Each day 0.4 ml of 1 M aqueous hydroxide was added to a 1.0-ml aliquot of the stock solution, followed by further dilution with saline to yield the appropriate dilutions for use.

Like-named read-outs stand apart in the source and are kept apart here.

By inhibition is commonly meant the relative decrease from the control value, in per cent.

For `C#Cc1ccc(-c2ccccc2F)cc1` [(2'-fluoro-4-biphenyl)acetylene], the “duration of activity (in words)” value (20 hours after oral dosing) is “activity still was observed 20 hours after dosing, indicating a long duration of activity”. Further, the inhibition at 25 mg/kg (1.5 h, 90 min. after dosing, collagen dilution 1:4) was 13%; the inhibition at 25 mg/kg (1.5 h, 90 min. after dosing, collagen dilution 1:16, significant at P=0.05) was 35%; the inhibition at 25 mg/kg (1.5 h, 90 min. after dosing, collagen dilution 1:32, significant at P=0.01) was 81%; the inhibition at 25 mg/kg (3 h, 3 hrs. after dosing, collagen dilution 1:4, significant at P=0.01) was found to be 44%; the inhibition at 25 mg/kg (3 h, 3 hrs. after dosing, collagen dilution 1:16, significant at P=0.01) stood at 69%; the inhibition at 25 mg/kg (3 h, 3 hrs. after dosing, collagen dilution 1:32, significant at P=0.01) was 86%. In addition, the inhibition at 25 mg/kg came out at 16% (6 h, 6 hrs. after dosing, collagen dilution 1:4); 42% (6 h, 6 hrs. after dosing, collagen dilution 1:16, significant at P=0.05); 49% (6 h, 6 hrs. after dosing, collagen dilution 1:32, significant at P=0.01); 18% (20 h, 20 hrs. after dosing, collagen dilution 1:4); 62% (20 h, 20 hrs. after dosing, collagen dilution 1:16, significant at P=0.01); 95% (20 h, 20 hrs. after dosing, collagen dilution 1:32, significant at P=0.01). Under “after oral dosing”, the “inhibition of collagen-induced platelet aggregation (in words)” value was “active inhibitor of collagen-induced platelet aggregation”. Besides, under “highest collagen concentration, after oral dosing”, the “inhibition at highest collagen concentration (in words)” value is recorded as “inhibited only at three hours after dosing”. In addition, the “inhibition of weakest collagen challenge (in words)” value (weakest collagen challenge, after oral dosing) is on record as “markedly inhibited at all time intervals after oral dosing”.
